First the molecules themselves.
T1: U-II receptors (Rattus norvegicus, UniProt P49684)
T1 construct: from tissue; host or cells: rat thoracic aorta (circular strips / rings)
T1 sequence (P49684 1-386): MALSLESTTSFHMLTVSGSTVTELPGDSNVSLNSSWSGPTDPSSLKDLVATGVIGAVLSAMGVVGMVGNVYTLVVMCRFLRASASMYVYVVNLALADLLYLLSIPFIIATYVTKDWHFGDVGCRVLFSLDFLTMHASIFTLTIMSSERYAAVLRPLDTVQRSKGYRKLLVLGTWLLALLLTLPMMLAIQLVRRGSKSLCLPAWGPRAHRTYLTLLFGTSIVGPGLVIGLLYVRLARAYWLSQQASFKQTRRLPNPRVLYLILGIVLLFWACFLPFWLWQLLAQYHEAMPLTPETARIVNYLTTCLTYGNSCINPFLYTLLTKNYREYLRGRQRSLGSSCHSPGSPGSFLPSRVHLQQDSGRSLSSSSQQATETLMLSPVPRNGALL

T2: U-II receptors (rat thoracic aorta tissue) (rat, UniProt P49684 1-386)
T2 sequence (looked up): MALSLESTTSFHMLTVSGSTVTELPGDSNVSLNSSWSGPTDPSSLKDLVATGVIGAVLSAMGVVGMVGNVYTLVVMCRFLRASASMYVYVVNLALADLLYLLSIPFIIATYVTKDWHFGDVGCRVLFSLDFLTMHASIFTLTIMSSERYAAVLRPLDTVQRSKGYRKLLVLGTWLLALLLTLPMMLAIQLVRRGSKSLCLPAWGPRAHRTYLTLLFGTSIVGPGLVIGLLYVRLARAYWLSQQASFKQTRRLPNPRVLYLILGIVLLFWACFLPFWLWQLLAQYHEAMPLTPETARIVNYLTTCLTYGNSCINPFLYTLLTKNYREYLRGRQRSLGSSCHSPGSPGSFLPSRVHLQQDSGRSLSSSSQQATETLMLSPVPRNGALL

B1: Cpa-D-Cys-Tyr-D-Trp-Lys-Thr-Cys-Nal-NH2 (SEQ ID NO: 9) (peptide)
peptide: XXYXKTCX
modifications: Cpa (p-chlorophenylalanine) at 1; D-Cys at 2; D-Trp at 4; Nal (naphthylalanine) at 8; C-terminal amide

Bridge positions count the residues as written; N and C are the ends. Square brackets hold non-standard residues; d marks the D form. Ends that are not written are not given here. Peptide text beside a SMILES is read from it. dDip = N[C@@H](C(=O)O)C(c1ccccc1)c1ccccc1; Phe(4-Cl) = N[C@@H](Cc1ccc(Cl)cc1)C(=O)O; Phe(4-F) = N[C@@H](Cc1ccc(F)cc1)C(=O)O; 2Nal = N[C@@H](Cc1ccc2ccccc2c1)C(=O)O; 3Pal = N[C@@H](Cc1cccnc1)C(=O)O; Tle = CC(C)(C)[C@H](N)C(=O)O; Nal = naphthylalanine

One assay has as its target T1, U-II receptors. Nature of the assay: Binding to U-II receptors (rat aorta tissue). Conditions: unit inferred.
On to `CC(C)[C@@H]1NC(=O)[C@H](CCCCN)NC(=O)[C@@H](Cc2c[nH]c3ccccc23)NC(=O)[C@H](Cc2cccnc2)NC(=O)[C@H](NC(=O)[C@@H](N)Cc2ccc(Cl)cc2)CSSC[C@@H](C(=O)N[C@@H](Cc2ccc(Cl)cc2)C(N)=O)NC1=O` [Cpa-c[D-Cys-Pal-D-Trp-Lys-Val-Cys]-Cpa-amide] (H-[Phe(4-Cl)][dC][3Pal][dW]KVC[Phe(4-Cl)]-NH2; disulfide 2-7), for which the Kd (usually the constant that tells how readily two partners part at equilibrium) came out at 240 nM.

For a further assay, the target named is U-II receptors (rat thoracic aorta tissue) (rat) (UniProt P49684). Briefly: cell-based or functional assay.
Settings: not given
Molecule “Cpa-c[D-Cys-Pal-D-Trp-Lys-Val-Cys]-Cpa-amide (SEQ ID NO: 4) (peptide)” showed an IC50 against U-II-induced phasic contractions of circular rat thoracic aorta strips of 100 nM.

The next assay concerns the target T2, U-II receptors (rat thoracic aorta …). Briefly: cell-based or functional assay.
Settings: not given
With [Phe(4-F)][dC][3Pal][dW]K[Tle]C[Nal]-NH2 (disulfide 2-7 (inferred)) [4Fpa-D-Cys-Pal-D-Trp-Lys-Tle-Cys-Nal-NH2 (SEQ ID NO: 8)], the “IC50 (nM) against U-II Stimulation of Rat Aorta Phasic Contractions” value (“IC50 (nM) against U-II Stimulation” for short) was 100 nM. Same read-out and setting: for [Phe(4-Cl)][dC][3Pal]WKTC[Phe(4-Cl)]-NH2 (disulfide 2-7 (inferred)) [Cpa-D-Cys-Pal-Trp-Lys-Thr-Cys-Cpa-NH2 (SEQ ID NO: 11)] the value was 2 nM. As to [Nal][dC]H[dW]KVC[dDip]-NH2 (disulfide 2-7 (inferred)) [Nal-D-Cys-His-D-Trp-Lys-Val-Cys-D-Dip-NH2 (SEQ ID NO: 6)], the “IC50 (nM) against U-II Stimulation” value was 1800 nM.

For B1, the “IC50 (nM) against U-II Stimulation” value was determined as 12 nM.

For [Phe(4-Cl)][dC][3Pal][dW]K[Tle]C[Nal]-NH2 (disulfide 2-7 (inferred)) [Cpa-D-Cys-Pal-D-Trp-Lys-Tie-Cys-Nal-NH2 (SEQ ID NO: 10)], the “IC50 (nM) against U-II Stimulation” value is 10 nM.

In the case of [Phe(4-F)][dC][3Pal][dW]KVC[Nal]-NH2 (disulfide 2-7 (inferred)) [4Fpa-D-Cys-Pal-D-Trp-Lys-Val-Cys-Nal-NH2 (SEQ ID NO: 7)], the “IC50 (nM) against U-II Stimulation” value was 1090 nM.

The test system of a further assay is U-II Stimulation of Rat Aorta Phasic Contractions.
Test: not given
Settings: not given
As to the method: Example 2: Use of Rat Aorta Circular Strip for Assay U-II Antagonists
Male Sprague-Dawley rats (250-350 g), which had been quarantined for 5-7 days prior to the experiments, were sacrificed by decapitation (experiments were approved by the Advisory Committee For Animal Resources, Tulane University School of Medicine). The thoracic aorta was dissected, freed from connective tissue, and cut into rings of about 1.5 mm in width. The rings were suspended in a 15 ml organ bath containing high potassium Kreb's solution (9.15 g/L potassium chloride, 2.1 g/L sodium bicarbonate, 1.0 g/L glucose, 0.16 g/L potassium phosphate monobasic. 0.14 g/L magnesium sulfate (anhydr.), and 0.22 g/L calcium chloride (dihydr.))
Optimal tension was applied (0.2 g) to the tissues and the bath medium was maintained at 37°C and bubbled with a mixture of 95% O2/5% CO2. Prior to mounting in the organ bath, selected preparations were rubbed with a moistened cotton wool swab, in order to remove the endothelial cell layer, and the effect of this procedure was tested using an acetylcholine-relaxation test. (Gibson, A., Br. J. Pharmacol. 91:205 (1987)). The aorta rings were allowed to equilibrate for 90 min. at the optimal tensions. During the equilibration period, the bath solution was replaced every 15 min. Contractile responses of aortae rings to various concentrations of peptides were expressed in volts. Changes in arterial smooth muscle tension were recorded isometrically using a force-displacement transducer (Radnoti), and a AcqKnowledge ACK100 Version 3.2 (BIOPAC Systems, Inc., Santa Barbara, CA.)
In siliconized glass tubes, peptides were dissolved in dionized water at a concentration of 1 µg/1µL (stock solution) and then diluted 1:10 with sterile BSA-saline solution (0.1% BSA, fraction V, Sigma, St. Louis in 0.9% NaCl). All peptide solutions were prepared fresh directly before the experiments. Peptides in the concentration ranges of 10^-6 to 10^-12 M/L in a final volume of 16-80 µL were direcly introduced into the tested organ bath containing Krebs buffer continuously gassed with 95% O, and 5% CO2, and the aorta rings at an optimal resting tension (1 - 0.2g). Peptide-induced changes in tension of the aorta rings were recorded by force-displacement transducers and processed by the computer system BIOPAC Inc., as described above. Each ring was exposed to one peptide concentration only.
Various somatostatin (SRIF) antagonists were discovered to have the ability to block UII-induced phase contractions in the circular rat thoracic aorta strips. […] The polypeptide Cpa-c[D-Cys-Phe-Trp-Lys-Thr-Cys]-ValNH2 was also a strong U-II antagonist with an IC50 of 2nM. Table 1. SRIF Antagonist IC50s (nM) against U-II Stimulation of Rat Aorta Phasic Contractions
With `CC(C)[C@@H]1NC(=O)[C@H](CCCCN)NC(=O)[C@@H](Cc2c[nH]c3ccccc23)NC(=O)[C@H](Cc2c[nH]cn2)NC(=O)[C@H](NC(=O)[C@@H](N)Cc2ccc3ccccc3c2)CSSC[C@@H](C(=O)N[C@@H](C(N)=O)C(c2ccccc2)c2ccccc2)NC1=O` [Nal-D-Cys-His-D-Trp-Lys-Val-Cys-D-Dip-NH2] (H-[2Nal][dC]H[dW]KVC[dDip]-NH2; disulfide 2-7; N-terminus assumed), inhibition was half-maximal at 1800 nM (IC50).

With `CC(C)[C@@H]1NC(=O)[C@H](CCCCN)NC(=O)[C@@H](Cc2c[nH]c3ccccc23)NC(=O)[C@H](Cc2cccnc2)NC(=O)[C@H](NC(=O)[C@@H](N)Cc2ccc(Cl)cc2)CSSC[C@@H](C(=O)N[C@@H](Cc2ccc(Cl)cc2)C(N)=O)NC1=O` [Cpa-c[D-Cys-Pal-D-Trp-Lys-Val-Cys]-Cpa-amide] (H-[Phe(4-Cl)][dC][3Pal][dW]KVC[Phe(4-Cl)]-NH2; disulfide 2-7), the IC50 (in general, the concentration that gives 50% inhibition) was roughly 100 nM.

Molecule `CC(C)(C)[C@@H]1NC(=O)[C@H](CCCCN)NC(=O)[C@@H](Cc2c[nH]c3ccccc23)NC(=O)[C@H](Cc2cccnc2)NC(=O)[C@H](NC(=O)[C@@H](N)Cc2ccc(Cl)cc2)CSSC[C@@H](C(=O)N[C@@H](Cc2ccc3ccccc3c2)C(N)=O)NC1=O` [Cpa-D-Cys-Pal-D-Trp-Lys-Tie-Cys-Nal-NH2] (H-[Phe(4-Cl)][dC][3Pal][dW]K[Tle]C[2Nal]-NH2; disulfide 2-7; N-terminus assumed) yielded an IC50 of 10 nM. In the case of `CC(C)(C)[C@@H]1NC(=O)[C@H](CCCCN)NC(=O)[C@@H](Cc2c[nH]c3ccccc23)NC(=O)[C@H](Cc2cccnc2)NC(=O)[C@H](NC(=O)[C@@H](N)Cc2ccc(F)cc2)CSSC[C@@H](C(=O)N[C@@H](Cc2ccc3ccccc3c2)C(N)=O)NC1=O` [4Fpa-D-Cys-Pal-D-Trp-Lys-Tle-Cys-Nal-NH2] (H-[Phe(4-F)][dC][3Pal][dW]K[Tle]C[2Nal]-NH2; disulfide 2-7; N-terminus assumed), it took 100 nM to reach half-maximal inhibition (IC50). Still for that read-out and setting: for `C[C@@H](O)[C@@H]1NC(=O)[C@H](CCCCN)NC(=O)[C@H](Cc2c[nH]c3ccccc23)NC(=O)[C@H](Cc2cccnc2)NC(=O)[C@H](NC(=O)[C@@H](N)Cc2ccc(Cl)cc2)CSSC[C@@H](C(=O)N[C@@H](Cc2ccc(Cl)cc2)C(N)=O)NC1=O` [Cpa-D-Cys-Pal-Trp-Lys-Thr-Cys-Cpa-NH2] the value was 2 nM; for `CC(C)[C@@H]1NC(=O)[C@H](CCCCN)NC(=O)[C@@H](Cc2c[nH]c3ccccc23)NC(=O)[C@H](Cc2cccnc2)NC(=O)[C@H](NC(=O)[C@@H](N)Cc2ccc(F)cc2)CSSC[C@@H](C(=O)N[C@@H](Cc2ccc3ccccc3c2)C(N)=O)NC1=O` [4Fpa-D-Cys-Pal-D-Trp-Lys-Val-Cys-Nal-NH2] (H-[Phe(4-F)][dC][3Pal][dW]KVC[2Nal]-NH2; disulfide 2-7; N-terminus assumed), 1090 nM; for `C[C@@H](O)[C@@H]1NC(=O)[C@H](CCCCN)NC(=O)[C@@H](Cc2c[nH]c3ccccc23)NC(=O)[C@H](Cc2ccc(O)cc2)NC(=O)[C@H](NC(=O)[C@@H](N)Cc2ccc(Cl)cc2)CSSC[C@@H](C(=O)N[C@@H](Cc2ccc3ccccc3c2)C(N)=O)NC1=O` [Cpa-D-Cys-Tyr-D-Trp-Lys-Thr-Cys-Nal-NH2] (H-[Phe(4-Cl)][dC]Y[dW]KTC[2Nal]-NH2; disulfide 2-7; N-terminus assumed), 12 nM.

The target of another assay is T2, U-II receptors (rat thoracic aorta …). Briefly: cell-based or functional assay.
Settings: not given
The source holds these as a separate data set.
[Phe(4-Cl)][dC]FWKTCV-NH2 (disulfide 2-7 (inferred)) [Cpa-c[D-Cys-Phe-Trp-Lys-Thr-Cys]-Val-NH2 (SEQ ID NO: 5)]: the “IC50 against U-II-induced phasic contractions of circular rat thoracic aorta strips” value turned out to be 2 nM.
